Columns and labels:
Assay in all cases: relative viability (nuclei count vs DMSO), 5 days (fraction); higher = more cells survive
[1] = system: A549
Method in brief: (§1)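 Medians of duplicate plates are given as relative viability. That measure is the nuclei count in treated wells divided by the count in vehicle wells. Counts were taken on 4× images of lung cancer cell lines in 1536-well plates, 5 days after pin-tool dosing the day after seeding with one drug alone or a fixed anchor-drug dose plus five library-drug doses (not always all listed) in √10 steps.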

[2] = system: NCI-H1993
Method in brief: as §1

[3] = system: NCI-H1703
Method in brief: as §1

[4] = system: UMC-11
Method in brief: as §1

[5] = system: NCI-H1299
Method in brief: as §1

[6] = system: NCI-H596
Method in brief: as §1

[7] = system: EBC-1
Method in brief: as §1

[8] = system: NCI-H23
Method in brief: as §1

[9] = system: IA-LM
Method in brief: as §1

[10] = system: NCI-H1355
Method in brief: as §1

[11] = system: Calu-6
Method in brief: as §1

[12] = system: NCI-H322M
Method in brief: as §1

[13] = system: LCLC-97TM1
Method in brief: as §1

With COc1cc2nccc(Oc3ccc(NC(=O)Nc4cc(C)on4)c(Cl)c3)c2cc1OC [Tivozanib] + CS(=O)(=O)N1CCN(Cc2cc3nc(-c4cccc5[nH]ncc45)nc(N4CCOCC4)c3s2)CC1 [Pictilisib] (partner 1 µM) the relative viability ([1]; first compound 0.005 µM) was 0.49, the relative viability ([1]; first compound 0.01581 µM) was 0.456 and the relative viability ([1]; first compound 0.05 µM) was 0.65. For the same molecule, the relative viability ([1]; first compound 0.1581 µM) was 0.451, the relative viability ([1]; first compound 0.5 µM) was 0.571 and the relative viability ([2]; first compound 0.005 µM) was 0.845. For the same molecule, the relative viability ([2]; first compound 0.01581 µM) was 0.782, the relative viability ([2]; first compound 0.05 µM) was 0.875 and the relative viability ([2]; first compound 0.1581 µM) was 0.709. It also gave a relative viability ([2]; first compound 0.5 µM) of 0.737, a relative viability ([3]; first compound 0.005 µM) of 0.161 and a relative viability ([3]; first compound 0.01581 µM) of 0.236. For the same molecule, the relative viability ([3]; first compound 0.05 µM) was 0.253, the relative viability ([3]; first compound 0.1581 µM) was 0.181 and the relative viability ([3]; first compound 0.5 µM) was 0.213. For the same molecule, the relative viability ([4]; first compound 0.005 µM) was 0.793, the relative viability ([4]; first compound 0.01581 µM) was 0.725 and the relative viability ([4]; first compound 0.05 µM) was 0.712. The relative viability ([4]; first compound 0.5 µM) was 0.653, the relative viability ([5]; first compound 0.005 µM) was 0.687 and the relative viability ([5]; first compound 0.01581 µM) was 0.62. It also gave a relative viability ([5]; first compound 0.05 µM) of 0.797, a relative viability ([5]; first compound 0.1581 µM) of 0.789 and a relative viability ([5]; first compound 0.5 µM) of 0.615. For the same molecule, the relative viability ([6]; first compound 0.005 µM) was 0.28, the relative viability ([6]; first compound 0.01581 µM) was 0.364 and the relative viability ([6]; first compound 0.05 µM) was 0.427. For the same molecule, the relative viability ([6]; first compound 0.1581 µM) was 0.411, the relative viability ([6]; first compound 0.5 µM) was 0.326 and the relative viability ([7]; first compound 0.005 µM) was 0.367. It also gave a relative viability ([7]; first compound 0.01581 µM) of 0.362, a relative viability ([7]; first compound 0.05 µM) of 0.378 and a relative viability ([7]; first compound 0.1581 µM) of 0.25. It also gave a relative viability ([7]; first compound 0.5 µM) of 0.401, a relative viability ([8]; first compound 0.005 µM) of 0.443 and a relative viability ([8]; first compound 0.01581 µM) of 0.471. The relative viability ([8]; first compound 0.05 µM) was 0.409, the relative viability ([8]; first compound 0.1581 µM) was 0.319 and the relative viability ([8]; first compound 0.5 µM) was 0.49. It also gave a relative viability ([9]; first compound 0.005 µM) of 0.308, a relative viability ([9]; first compound 0.01581 µM) of 0.366 and a relative viability ([9]; first compound 0.05 µM) of 0.321. For the same molecule, the relative viability ([9]; first compound 0.1581 µM) was 0.316, the relative viability ([9]; first compound 0.5 µM) was 0.574 and the relative viability ([10]; first compound 0.005 µM) was 0.381. For the same molecule, the relative viability ([10]; first compound 0.01581 µM) was 0.41, the relative viability ([10]; first compound 0.05 µM) was 0.441 and the relative viability ([10]; first compound 0.5 µM) was 0.387. It also gave a relative viability ([11]; first compound 0.005 µM) of 0.969, a relative viability ([11]; first compound 0.01581 µM) of 0.979 and a relative viability ([11]; first compound 0.05 µM) of 0.842. For the same molecule, the relative viability ([11]; first compound 0.1581 µM) was 0.798, the relative viability ([11]; first compound 0.5 µM) was 0.823 and the relative viability ([12]; first compound 0.005 µM) was 0.484. It also gave a relative viability ([12]; first compound 0.01581 µM) of 0.518, a relative viability ([12]; first compound 0.05 µM) of 0.529 and a relative viability ([12]; first compound 0.1581 µM) of 0.465. For the same molecule, the relative viability ([12]; first compound 0.5 µM) was 0.568, the relative viability ([13]; first compound 0.005 µM) was 0.206 and the relative viability ([13]; first compound 0.01581 µM) was 0.23. It also gave a relative viability ([13]; first compound 0.1581 µM) of 0.119 and a relative viability ([13]; first compound 0.5 µM) of 0.164.

Reference: the supplement of paper PMC10307832
